How the values were obtained:
[1] = molecular target: T1, SHP-2 (Homo sapiens, UniProt Q06124); assay: SHP-2 inhibition, OMFP substrate assay; format: biochemical; details: for IC50: OMFP substrate, means ± SD of three replications, PC = Na3VO4
T1 construct: made in house
T1 sequence (Q06124 1-593): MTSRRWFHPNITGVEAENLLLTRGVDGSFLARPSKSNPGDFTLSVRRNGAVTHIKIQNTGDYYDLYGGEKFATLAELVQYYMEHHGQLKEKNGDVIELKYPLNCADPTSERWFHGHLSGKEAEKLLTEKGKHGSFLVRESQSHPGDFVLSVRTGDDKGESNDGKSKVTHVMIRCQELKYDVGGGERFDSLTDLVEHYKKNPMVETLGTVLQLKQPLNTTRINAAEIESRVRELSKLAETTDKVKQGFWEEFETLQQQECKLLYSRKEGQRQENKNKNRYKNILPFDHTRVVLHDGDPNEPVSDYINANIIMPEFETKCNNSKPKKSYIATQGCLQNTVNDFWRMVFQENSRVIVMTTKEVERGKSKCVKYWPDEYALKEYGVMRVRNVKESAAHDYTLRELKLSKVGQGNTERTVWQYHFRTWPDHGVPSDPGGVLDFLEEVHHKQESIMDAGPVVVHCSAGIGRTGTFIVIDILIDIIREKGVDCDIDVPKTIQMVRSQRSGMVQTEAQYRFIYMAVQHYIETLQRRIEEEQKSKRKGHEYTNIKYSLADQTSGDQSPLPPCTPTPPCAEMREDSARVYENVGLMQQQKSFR
Procedure: (§1) In addition to potency improvements, we investigated the selectivity of three representative compounds, namely, 1, 46 and 49 against other PTPs (TCPTP, SHP-1, SHP-2, LAR). […] Besides TCPTP, we tested the inhibitory activity of these compounds on other three homogenous enzymes SHP-1, SHP-2, and LAR [25].
(§2) A colorimetric assay to measure inhibition against PTP1B and TCPTP was performed in 96-well plates. Briefly, the tested compounds were solubilized in DMSO and serially diluted into concentrations for the inhibitory test. The assays were carried out in a final volume of 100 μL containing 50 mmol/L MOPS, pH 6.5, 2 mmol/L pNPP, 30 nmol/L GST-PTP1B or GST-TCPTP,and 2% DMSO, and the catalysis of pNPP was continuously monitored on a SpectraMax 340 microplate reader at 405 nm for 3 min at 30 °C. The IC50 value was calculated from the nonlinear curve fitting of the percent inhibition [inhibition (%)] vs. the inhibitor concentration using the Equation (1): Inhibition (%) = 100/[1 + (IC50/[I]k)] (1) where k is the Hill coefficient. To study the inhibition on the other PTPase family members, SHP1, SHP2 and LAR were prepared and assays were performed according to procedures described previously. Briefly, the enzymatic activity of the SHP1, SHP2 and LARwere determined at 30 °C by monitoring the dephosphorylation of substrate 3-o-methylfluorescein phosphate (OMFP), product was then detected at a 485 nm excitation wavelength and 530 nm emission wavelength by the EnVision multilabe plate reader (Perkin-Elmer Life Sciences, Boston, MA, USA). The assays were carried out in a final volume of 50 μL containing 50 mmol/L MOPS, pH 6.8, 10 μmol/L OMFP, 20 nmol/L recombinant enzyme, 2 mmol/L dithiothreitol , 1 mmol/L EDTA, and 2% DMSO. The initial rate of the dephosphorylation was presented by the early linear region of the enzymatic reaction kinetic curve, the inhibitory activity of the compound was continuously monitored.

[2] = molecular target: T2, TCPTP (GST-TCPTP) (Homo sapiens, UniProt P17706); assay: TCPTP inhibition, colorimetric pNPP assay; format: biochemical; details: for IC50: pNPP substrate, means ± SD of three replications, PC = oleanolic acid; for TCPTP/PTP1B (selectivity, fold): ratio of IC50 TCPTP to IC50 PTP1B
T2 sequence (P17706 1-415): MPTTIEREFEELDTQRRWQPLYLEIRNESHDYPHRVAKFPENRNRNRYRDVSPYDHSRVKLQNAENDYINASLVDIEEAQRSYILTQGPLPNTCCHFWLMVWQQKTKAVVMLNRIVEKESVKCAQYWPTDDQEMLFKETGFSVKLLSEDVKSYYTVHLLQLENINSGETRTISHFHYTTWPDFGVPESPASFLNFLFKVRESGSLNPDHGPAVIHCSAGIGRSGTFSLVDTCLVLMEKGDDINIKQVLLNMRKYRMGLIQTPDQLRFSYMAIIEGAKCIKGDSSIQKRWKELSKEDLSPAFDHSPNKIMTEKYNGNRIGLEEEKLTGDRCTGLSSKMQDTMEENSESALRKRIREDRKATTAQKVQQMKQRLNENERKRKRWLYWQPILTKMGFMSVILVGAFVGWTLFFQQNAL
Procedure: as §1, §2

[3] = molecular target: T3, SHP-1 (Homo sapiens, UniProt P29350); assay: SHP-1 inhibition, OMFP substrate assay; format: biochemical; details: for IC50: OMFP substrate, means ± SD of three replications, PC = Na3VO4
T3 construct: made in house
T3 sequence (P29350 whole entry): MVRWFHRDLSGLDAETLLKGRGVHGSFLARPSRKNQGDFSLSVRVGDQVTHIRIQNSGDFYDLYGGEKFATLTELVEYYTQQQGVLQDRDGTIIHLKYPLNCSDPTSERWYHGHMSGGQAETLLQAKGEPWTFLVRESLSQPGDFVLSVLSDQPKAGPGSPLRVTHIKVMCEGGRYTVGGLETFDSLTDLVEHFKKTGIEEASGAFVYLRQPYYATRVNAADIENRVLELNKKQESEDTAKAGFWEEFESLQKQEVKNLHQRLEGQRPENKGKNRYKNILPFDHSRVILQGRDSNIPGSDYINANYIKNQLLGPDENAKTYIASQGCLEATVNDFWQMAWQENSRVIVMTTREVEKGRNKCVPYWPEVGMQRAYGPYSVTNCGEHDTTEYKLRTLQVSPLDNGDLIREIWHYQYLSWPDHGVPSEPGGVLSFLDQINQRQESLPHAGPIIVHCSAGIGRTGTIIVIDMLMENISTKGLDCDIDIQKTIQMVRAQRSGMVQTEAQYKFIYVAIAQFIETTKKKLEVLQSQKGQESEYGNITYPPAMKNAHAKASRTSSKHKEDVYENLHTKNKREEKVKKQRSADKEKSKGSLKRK
Procedure: as §1, §2

[4] = molecular target: T4, PTP1B (GST-PTP1B) (Homo sapiens, UniProt P18031); assay: PTP1B inhibition, colorimetric pNPP assay; format: biochemical; details: for inhibition at 20 µg/mL: PTP1B, compound at 20 μg/mL
T4 sequence (P18031 1-435): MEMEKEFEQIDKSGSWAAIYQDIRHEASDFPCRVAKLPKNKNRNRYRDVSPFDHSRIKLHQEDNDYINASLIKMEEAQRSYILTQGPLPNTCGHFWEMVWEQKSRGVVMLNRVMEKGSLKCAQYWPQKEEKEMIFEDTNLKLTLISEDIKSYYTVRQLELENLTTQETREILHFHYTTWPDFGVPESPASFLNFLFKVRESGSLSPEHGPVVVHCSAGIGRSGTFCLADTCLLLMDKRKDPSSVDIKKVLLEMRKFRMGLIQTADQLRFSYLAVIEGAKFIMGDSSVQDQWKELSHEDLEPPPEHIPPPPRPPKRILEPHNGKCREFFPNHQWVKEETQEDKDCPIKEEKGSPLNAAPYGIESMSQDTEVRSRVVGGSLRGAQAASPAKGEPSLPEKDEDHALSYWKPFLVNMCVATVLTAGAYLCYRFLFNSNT

[5] = molecular target: T5, LAR (Homo sapiens, UniProt P10586); assay: LAR inhibition, OMFP substrate assay; format: biochemical; details: NA = no activity (inhibitory ratio lower than 50% at the dose of 20 μg/mL), PC = Na3VO4
T5 sequence (P10586 1352-1607 limits assumed): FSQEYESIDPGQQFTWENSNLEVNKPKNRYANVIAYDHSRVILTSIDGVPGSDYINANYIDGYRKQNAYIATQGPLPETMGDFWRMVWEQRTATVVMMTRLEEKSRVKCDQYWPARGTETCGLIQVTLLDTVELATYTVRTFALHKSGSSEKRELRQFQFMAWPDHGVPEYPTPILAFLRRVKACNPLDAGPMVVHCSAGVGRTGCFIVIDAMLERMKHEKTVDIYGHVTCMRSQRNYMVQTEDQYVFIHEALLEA
Procedure: as §1
as §2, with “To study the inhibition on the other PTPase family members, SHP1, SHP2 and LAR were prepared and assays were performed according to procedures described previously.” left out, “The assays were carried out in a final volume of 50 μL containing 50 mmol/L MOPS, pH 6.8, 10 μmol/L OMFP, 20 nmol/L recombinant enzyme, 2 mmol/L dithiothreitol , 1 mmol/L EDTA, and 2% DMSO. The initial rate of the dephosphorylation was presented by the early linear region of the enzymatic reaction kinetic curve, the inhibitory activity of the compound was continuously monitored.” left out

[6] = pNPP substrate, means ± SD of three replications, OA/PC = oleanolic acid positive control

| inhibition at 20 µg/mL ([4]; pNPP substrate) | IC50 [4, 6] | melting point | SMILES | also measured |
| --- | --- | --- | --- | --- |
| 98.6% | 8.34 ± 1.07 µM |  | O=C(O)c1ccc(C2Nc3cccc4cccc(c34)N2)cc1 [Compound 1, 4-(2,3-dihydro-1H-perimidin-2-yl)benzoic acid] | IC50 [1]: 31.2 ± 7.72 µM; IC50 [2]: 4.83 ± 0.9 µM; TCPTP/PTP1B (selectivity, fold) [2]: 0.58; IC50 [3]: 23.3 ± 2.03 µM |
| 99.4% | 0.59 ± 0.05 µM | 86.7 to 88.4 °C | O=C(O)CCCCCNC(=O)c1ccc(C2Nc3cccc4cccc(c34)N2)nc1 [Compound 49, 6-[6-(2,3-Dihydro-1H-perimidin-2-yl)nicotinamido]hexanoic acid] | IC50 [1]: 2.5 ± 0.22 µM; selectivity for PTP1B over SHP-2 ([1]; from IC50 values): about 4 fold; IC50 [2]: 1.24 ± 0.12 µM; TCPTP/PTP1B (selectivity, fold) [2]: 2.10; IC50 LAR [5]: no visible activities; IC50 [3]: 2.72 ± 0.3 µM; selectivity for PTP1B over SHP-1 ([3]; from IC50 values): about 4 fold; IC50 PTP1B [4, 6]: submicromolar |
| 98.5% | 15.2 ± 1.41 µM | 95.3 to 99 °C | O=C(O)CCCNC(=O)c1ccc(C2Nc3cccc4cccc(c34)N2)nc1 [Compound 47, 4-[6-(2,3-Dihydro-1H-perimidin-2-yl)nicotinamido]butanoic acid] |  |
| 6.83% |  | 128.6 to 132.5 °C | CCOC(=O)CCCNC(=O)c1ccc(C2Nc3cccc4cccc(c34)N2)cc1 [Compound 12, Ethyl 4-(4-(2,3-dihydro-1H-perimidin-2-yl)benzamido)butanoate] |  |
| 94.8% | 5.53 ± 0.54 µM | 102.8 to 107.4 °C | O=C(O)CCCCNC(=O)c1ccc(C2Nc3cccc4cccc(c34)N2)cc1 [Compound 18, 5-(4-(2,3-Dihydro-1H-perimidin-2-yl)benzamido)pentanoic acid] |  |
| 84.2% | 20.2 ± 1.94 µM | 233.1 to 234.3 °C | O=C(O)C1CCCN1C(=O)c1ccc(C2Nc3cccc4cccc(c34)N2)cc1 (stereo not drawn) [Compound 15, 1-(4-(2,3-Dihydro-1H-perimidin-2-yl)benzoyl)pyrrolidine-2-carboxylic acid] |  |
| 28.5% |  | 141.8 to 143.1 °C | CCOC(=O)CCCCNC(=O)c1ccc(C2Nc3cccc4cccc(c34)N2)cc1 [Compound 13, Ethyl 5-(4-(2,3-dihydro-1H-perimidin-2-yl)benzamido)pentanoate] |  |
| 96.6% | 10.8 ± 0.69 µM | 100.7 to 101.3 °C | O=C(O)c1ccc(C2Nc3cccc4cccc(c34)N2)nc1 [Compound 41] |  |
| 32.1% |  | 165.9 to 167.8 °C | O=C(O)CCCCOc1ccc(C2Nc3cccc4cccc(c34)N2)cc1 [Compound 25, 5-[4-(2,3-Dihydro-1H-perimidin-2-yl)phenoxy]pentanoic acid] | PTP1B inhibitory activity (in words) ([4]; pNPP assay, tested at 20 μg/mL): no inhibitory activity |
| 90% | 27.8 ± 5.45 µM | 85.4 to 90.3 °C | O=C(O)CNC(=O)c1ccc(C2Nc3cccc4cccc(c34)N2)cc1 [Compound 16] |  |
